Test [1] relates to Puccinia recondita f.sp. tritici. Briefly: Puccinia recondita f.sp. tritici (wheat brown rust) leaf disk assay. To be noted: foliar, 216 h, preventive, nine days after inoculation, read-out: control of fungal infection, Puccinia recondita f.sp. tritici. It counts as in vivo.
Test [2] deals with Erysiphe graminis f.sp. tritici. Description: Erysiphe graminis f.sp. tritici (wheat powdery mildew) leaf disk assay. The conditions noted are these: Blumeria graminis, foliar, 96 h, preventive, four days after inoculation, read-out: control of fungal infection, Erysiphe graminis fsp. tritici. It counts as in vivo.

Turning to `CCc1ncnc(N2C3CCC2CC(=NOCc2cc(C)ccc2C)C3)c1Cl` [Example 5.47], the pest or weed control at 200 ppm in test [1] and in test [2] was at least 80% in each case.

As for `CCn1nnc(-c2ccc(CON=C3CC4CCC(C3)N4c3ncnc4sccc34)cc2)n1` [Example 5.247], the pest or weed control at 200 ppm in test [1] and in test [2] was at least 80% each time. On to `CCc1ncnc(N2C3CCC2CC(=NOCc2cccc(Br)c2)C3)c1Cl` [Example 5.39], for which the pest or weed control at 200 ppm in test [1] and in test [2] was at least 80% in each case. On to `CCc1ncnc(N2C3CCC2CC(=NOCc2cc(F)cc(F)c2F)C3)c1Cl` [Example 5.80], for which the pest or weed control at 200 ppm in test [1] and in test [2] was at least 80% in each case.

With `CCc1ncnc(N2C3CCC2CC(=NOCc2cccc(Cl)c2)C3)c1Cl` [Example 5.37], the pest or weed control at 200 ppm in test [1] and in test [2] was at least 80% throughout. Consider `c1ccc(-c2ccc(CON=C3CC4CCC(C3)N4c3ncnc4sccc34)cc2)cc1` [Example 5.175], for which the pest or weed control at 200 ppm in test [1] and in test [2] was at least 80% throughout. Take `CCc1ncnc(N2C3CCC2CC(=NOCc2ccccc2I)C3)c1Cl` [Example 5.46]: the pest or weed control at 200 ppm in test [1] and in test [2] was at least 80% in each case. Consider `FC(F)(F)c1cccc(OC2C[C@H]3CC[C@@H](C2)N3c2ccncn2)n1` (stereo partly shown) [Example 2.86], for which the pest or weed control at 200 ppm in test [1] and in test [2] was at least 80% throughout. In the case of `CCc1ncnc(N2C3CCC2CC(=NOCc2ccc(F)c(F)c2)C3)c1Cl` [Example 5.56], the pest or weed control at 200 ppm in test [1] and in test [2] was at least 80% in each case.

As for `Fc1cc(CON=C2CC3CCC(C2)N3c2ncnc3sccc23)cc(F)c1F` [Example 5.208], the pest or weed control at 200 ppm in test [1] and in test [2] was at least 80% in each case. For `Ic1ccccc1CON=C1CC2CCC(C1)N2c1ncnc2sccc12` [Example 5.201], the pest or weed control at 200 ppm in test [1] and in test [2] was at least 80% each time. Turning to `COc1cc(CON=C2CC3CCC(C2)N3c2ncnc3sccc23)nc(N)n1` [Example 5.172], the pest or weed control at 200 ppm in test [1] and in test [2] was at least 80% throughout. Consider `Fc1ccc(OC2C[C@H]3CC[C@@H](C2)N3c2ncnc3sccc23)cc1F` (stereo partly shown) [Example 1.18], for which the pest or weed control at 200 ppm in test [1] and in test [2] was at least 80% throughout. With `CCc1ncnc(N2C3CCC2CC(=NOCc2c(F)c(F)c(F)c(F)c2F)C3)c1Cl` [Example 5.84], the pest or weed control at 200 ppm in test [1] and in test [2] was at least 80% in each case. Regarding `CCc1ncnc(N2C3CCC2CC(=NOCc2cc(F)cc4c2OCOC4)C3)c1Cl` [Example 5.121], the pest or weed control at 200 ppm in test [1] and in test [2] was at least 80% throughout. With `Fc1cc2c(c(CON=C3CC4CCC(C3)N4c3ncnc4sccc34)c1)OCOC2` [Example 5.257], the pest or weed control at 200 ppm in test [1] and in test [2] was at least 80% each time. Take `CSc1nc(Cl)c(-c2ccccc2)c(ON=C2CC3CCC(C2)N3c2ncnc3sccc23)n1` [Example 5.254]: the pest or weed control at 200 ppm in test [1] was at least 80%. As for `CCc1ncnc(N2C3CCC2CC(=NOCc2ccc(OCc4ccccc4)cc2)C3)c1Cl` [Example 5.64], the pest or weed control at 200 ppm in test [1] and in test [2] was at least 80% each time.

For `Fc1cc(Cl)cnc1ON=C1CC2CCC(C1)N2c1ncnc2sccc12` [Example 5.182], the pest or weed control at 200 ppm in test [1] and in test [2] was at least 80% in each case. As to `Fc1c(F)c(F)c(CON=C2CC3CCC(C2)N3c2ncnc3sccc23)c(F)c1F` [Example 5.225], the pest or weed control at 200 ppm in test [1] and in test [2] was at least 80% each time.

Regarding `N#Cc1ccccc1-c1ccc(CON=C2CC3CCC(C2)N3c2ncnc3sccc23)cc1` [Example 5.206], the pest or weed control at 200 ppm in test [1] was at least 80%.
